In publication PMC11477289, “Low-Basicity 5-HT6 Receptor Ligands from the Group of Cyclic Arylguanidine Derivatives and Their Antiproliferative Activity Evaluation” (International Journal of Molecular Sciences, 2024):
“And” between values parts separate entries of the source, which are not always exact repeats. Equal entries are not always repeated. Where two headings read alike, the source gives them in different places.

Key:
[1] = system: 1321N1 astrocytoma cell line; assay: Antiproliferative activity (MTS), 1321N1; details: Homo sapiens, 1321-N1, 72 h, read-out: IC50 Values 1321N1
[2] = Chromatographic hydrophobicity index on C18 column (lipophilicity); type: physicochemical
From the text: We began with an assay for lipophilicity, affinity for phospholipids (for 40 compounds), and drug binding to human serum albumin (HSA) (for 20 compounds), using chromatographic protocols developed by Valko [46] and implemented in our laboratory [47]. […] These methods allowed the determination of chromatographic hydrophobicity indices (CHIs), binding to HSA (%HSA), and phospholipids (CHIIAM) using a single-gradient elution experiment and comparison to reference substances.

[3] = biological target: human serum albumin (HSA) (Homo sapiens, UniProt P02768); assay: Binding to HSA, Chiralpak HSA column
From the text: We began with an assay for lipophilicity, affinity for phospholipids (for 40 compounds), and drug binding to human serum albumin (HSA) (for 20 compounds), using chromatographic protocols developed by Valko [46] and implemented in our laboratory. Compounds with the highest affinity for 5-HT6R and those showing the most promising ADMET parameters, including the possibility of BBB penetration, DDI, and lipophilicity, determined in silico in SwissADME [45], were selected for testing. These methods allowed the determination of chromatographic hydrophobicity indices (CHIs), binding to HSA (%HSA), and phospholipids (CHIIAM) using a single-gradient elution experiment and comparison to reference substances.
The use of columns modified with plasma proteins, such as HSA, also allows for the estimation of binding to HSA, which is the most dominant plasma protein (PP). Binding to PP affects drug pharmacokinetics, such as distribution, half-life, and clearance.
The mobile phase flow rate was 1.5 mL/min, and the column was maintained at 30 °C. • Chiralpak® HSA (50 mm × 4 mm; 5 µm with safety guard column; Daicel Chiral Technologies, West Chester, PA, USA), mobile phase A: 50 mM ammonium acetate, mobile phase B: HPLC-grade isopropanol (VWR International, Leuven, Belgium). For the first 15 min, the linear gradient from 0 to 20% isopropanol was applied and then held at 20% isopropanol for 12 min. In the last 5 min of the sequence, the mobile phase mixture received a pure ammonium acetate solution. The column temperature was held at 30 °C, whereas the flow rate was 0.9 mL/min.
The reference substances for the calibration of HSA, C18, and IAM columns were purchased, respectively: acetanilide, butyrophenone, diclofenac, and octanonophenone (Alfa Aesar, Haverhill, MA, USA); acetophenone, benzimidazole, colchicine, indole, indometacin, paracetamol, and theophylline (Sigma-Aldrich, Steinheim, Germany); nicardipine and nizatidine (Cayman Chemical, Ann Arbor, MI, USA); carbamazepine, heptanophenone, hexanophenone, propiophenone, and valerophenone (Acros Organic, Pittsburg, PA, USA). Before chromatographic experiments, solutes were dissolved in dimethyl sulfoxide (Avantor Performance Materials Poland S.A., Gliwice, Poland) to obtain a 200 µg/mL concentration. The detection was performed in the UV region at the wavelength from 190 nm to 300 nm. The injected volume was 5 μL, and each compound was analyzed in triplicate.

[4] = Affinity to phospholipids, IAM column (CHI IAM); type: physicochemical; details: IAM.PC.DD2 column, pH 7.4
human 5-HT6 = biological target: T1, human 5-HT6 (Homo sapiens, UniProt P50406); assay: [3H]-LSD radioligand binding assay, 5-HT6R; details: HEK293 expressing human 5-HT6R, read-out: 5-HT6 Ki
T1 construct: expressed in transfected cells
Experimental: Next, the ligands’ affinity for the 5-HT6 receptors was evaluated in the [^3H]-LSD radioligand binding assay. Experiments were performed in a stable HEK293 cell line expressing the human 5-HT6R.
The pellets were stored at −80 °C.

U87MG glioblastoma cells = assay: Antiproliferative activity (MTS), U87MG; details: Homo sapiens, U-87 MG, 72 h, read-out: IC50 Values U87MG

T1 sequence (P50406 whole entry): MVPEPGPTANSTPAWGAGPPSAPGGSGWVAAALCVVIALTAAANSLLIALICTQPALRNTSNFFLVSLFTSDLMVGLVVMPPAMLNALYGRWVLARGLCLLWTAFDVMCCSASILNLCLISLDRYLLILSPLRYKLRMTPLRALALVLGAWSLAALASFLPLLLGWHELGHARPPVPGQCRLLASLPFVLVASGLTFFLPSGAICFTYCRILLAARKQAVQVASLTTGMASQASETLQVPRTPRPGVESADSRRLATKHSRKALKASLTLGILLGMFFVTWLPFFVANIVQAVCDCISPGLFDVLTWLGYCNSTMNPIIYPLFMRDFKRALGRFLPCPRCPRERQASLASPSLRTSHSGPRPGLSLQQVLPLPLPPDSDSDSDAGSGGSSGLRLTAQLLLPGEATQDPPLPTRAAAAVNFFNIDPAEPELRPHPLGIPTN
human serum albumin (HSA), sequence (P02768 25-609): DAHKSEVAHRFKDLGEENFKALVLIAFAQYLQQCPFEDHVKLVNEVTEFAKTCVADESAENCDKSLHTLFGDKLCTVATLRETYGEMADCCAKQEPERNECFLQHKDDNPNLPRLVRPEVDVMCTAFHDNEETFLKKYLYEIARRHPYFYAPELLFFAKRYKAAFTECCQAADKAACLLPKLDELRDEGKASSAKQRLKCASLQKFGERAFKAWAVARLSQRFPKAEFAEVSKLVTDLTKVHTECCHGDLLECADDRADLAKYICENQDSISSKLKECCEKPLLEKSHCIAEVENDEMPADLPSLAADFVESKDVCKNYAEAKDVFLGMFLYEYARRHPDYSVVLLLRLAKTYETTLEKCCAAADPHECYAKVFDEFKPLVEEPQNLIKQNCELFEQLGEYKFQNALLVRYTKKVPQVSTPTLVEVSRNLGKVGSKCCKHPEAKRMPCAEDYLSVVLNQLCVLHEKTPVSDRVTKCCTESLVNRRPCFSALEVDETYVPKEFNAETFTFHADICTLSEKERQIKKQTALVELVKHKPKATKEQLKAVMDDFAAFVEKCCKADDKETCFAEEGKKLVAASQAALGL

Row | SMILES | IC50 [1] [µM] | CHI C18 pH 2.6 [2] | CHI C18 pH 7.4 [2] | CHI C18 pH 10.5 [2] | %HSA ([3]; Chiralpak HSA column) [%] | logKHSA ([3]; Chiralpak HSA column) | melting point [°C] | CHI IAM [4] | Ki (human 5-HT6) [µM] | IC50 (U87MG glioblastoma cells) [µM] | %HSA [3] [%]
1 | CC1NC(NS(=O)(=O)c2cccc3ccccc23)=Nc2ccc(Br)cc21 (stereo not shown) [PR 75, N -(6-bromo-4-methyl-3,4-dihydroquinazolin-2-yl)naphthalene-1-sulfonamide] | > 25 | 103.2 | 101.2 | 105.6 | 98.3 | 1.6 | 119 to 123 | 46.3 | 0.484 ± 0.121 | > 25 | 
2 | O=S(=O)(NC1=Nc2ccccc2CN1)c1cccc2cc(Cl)ccc12 [PR 44, 6-chloro-N-(3,4-dihydroquinazolin-2-yl)naphthalene-1-sulfonamide] | > 25 | 98.2 | 96.5 | 99.5 | 98.3 | 1.6 | 210 to 212 | 44.3 | 0.282 ± 0.065 | > 25 | 
3 | COc1cccc2c1C(=O)c1c(O)c3c(c(O)c1C2=O)C[C@@](O)(C(=O)CO)C[C@@H]3O[C@H]1C[C@H](N)[C@H](O)[C@H](C)O1 [Doxorubicin, reference compound] | 1.1 |  |  |  |  |  |  |  |  |  | 
4 | CN1CCN2c3ncccc3Cc3ccccc3C2C1 (stereo not shown) [Mirtazapine, reference compound] |  | 46.7 | 101.2 | 79.0 | 76.9 | 0.51 |  | 39.3 |  |  | 
5 | Cc1cccc2c1CNC(NS(=O)(=O)c1cccc3ccccc13)=N2 [PR 61, N -(5-methyl-3,4-dihydroquinazolin-2-yl)naphthalene-1-sulfonamide] | > 25 | 93.1 | 91.8 | 94.2 | 97.3 | 1.4 | 233 to 237 | 41.4 | 0.412 ± 0.095 | > 25 | 
6 | CC1NC(NS(=O)(=O)c2ccc(Cl)c3ccccc23)=Nc2c(Cl)cc(Cl)cc21 (stereo not shown) [PR 74, 4-chloro-N-(6,8-dichloro-4-methyl-3,4-dihydroquinazolin-2-yl)naphthalene-1-sulfonamide] | 13.4 ± 0.8 | 125.7 | 123 and 123.9 | 128.1 | 99.9 | 2.0 | 215 to 219 | 55.5 | 1.04 ± 0.26 | 17 ± 0.4 | 
7 | CC1NC(NS(=O)(=O)c2cccc3ccccc23)=Nc2ccccc21 (stereo not shown) [PR 67, N -(4-methyl-3,4-dihydroquinazolin-2-yl)naphthalene-1-sulfonamide] | > 25 |  |  |  |  |  | 169 to 174 |  | 0.236 ± 0.058 | > 25 | 
8 | O=S(=O)(NC1=Nc2ccccc2CN1)c1cccc2c(Cl)cccc12 [PR 43, 5-chloro-N-(3,4-dihydroquinazolin-2-yl)naphthalene-1-sulfonamide] | > 25 |  |  |  |  |  | 185 to 191 |  | 0.258 ± 0.046 | > 25 | 
9 | O=S(=O)(NC1=Nc2ccccc2CN1)c1ccc(Cl)c2ccccc12 [PR 42, 4-chloro-N-(3,4-dihydroquinazolin-2-yl)naphthalene-1-sulfonamide] | > 25 | 100.1 | 99.2 | 101.6 | 97.9 | 1.5 | 188 to 191 | 45.5 | 0.268 ± 0.063 | > 25 | 
10 | COc1ccc2c(c1)N=C(NS(=O)(=O)c1cccc3ccccc13)NC2 [PR 60, N -(7-methoxy-3,4-dihydroquinazolin-2-yl)naphthalene-1-sulfonamide] |  | 88.2 | 87.0 | 90.3 |  |  | 213 to 217 | 39.2 | 1.41 ± 0.326 |  | 
11 | O=S(=O)(NC1=Nc2ccccc2CN1)c1ccc(F)cc1 [PR 14, N-(3,4-dihydroquinazolin-2-yl)-4-fluorobenzene-1-sulfonamide] |  | 75.4 | 75.0 | 75.7 |  |  | 215 to 216 | 31.3 | 2.44 ± 0.61 |  | 
12 | O=S(=O)(NC1=Nc2ccccc2CN1)c1ccc(Cl)c(Cl)c1 [PR 21, N -(3,4-dihydroquinazolin-2-yl)-3,4-dichlorobenzene-1-sulfonamide] |  | 94.2 | 92.3 | 95.2 |  |  | 192 to 193 | 42.0 | 1.02 ± 0.256 |  | 
13 | Cc1ccc2c(c1)N=C(NS(=O)(=O)c1cccc3ccccc13)NC2 [PR 62, N -(7-methyl-3,4-dihydroquinazolin-2-yl)naphthalene-1-sulfonamide] |  | 93.2 | 93.0 | 93.7 |  |  | 166 to 175 | 41.6 | 0.653 ± 0.151 |  | 
14 | CN1CCN2c3ccccc3Cc3ccccc3C2C1 (stereo not shown) [Mianserin, reference compound] |  | 59.4 | 108.6 | 98.7 | 90.9 | 0.95 |  | 44.2 |  |  | 
15 | COc1ccc2c(c1)CNC(NS(=O)(=O)c1cccc3ccccc13)=N2 [PR 59, N -(6-methoxy-3,4-dihydroquinazolin-2-yl)naphthalene-1-sulfonamide] |  | 84.9 | 85.0 | 88.4 |  |  | 263 to 266 | 38.2 | 1.96 ± 0.452 |  | 
16 | CN(C)CCC=C1c2ccccc2CCc2ccccc21 [Amitriptyline, reference compound] |  | 65.9 | 112.0 | 116.3 |  | 0.87 |  | 47.0 |  |  | 88.9
17 | O=S(=O)(NC1=Nc2cc(Cl)ccc2CN1)c1cccc2ccccc12 [PR 48, N -(7-chloro-3,4-dihydroquinazolin-2-yl)naphthalene-1-sulfonamide] |  | 97.6 | 97.1 | 95.9 |  |  | 214 to 219 | 44.6 | 0.668 ± 0.156 |  | 
18 | COc1ccc(C(CN(C)C)C2(O)CCCCC2)cc1 (stereo not shown) [Venlafaxine, reference compound] |  | 53.5 | 82.2 | 92.9 |  | -0.55 |  | 29.9 |  |  | 
19 | O=S(=O)(NC1=Nc2ccccc2CN1)c1cc(Cl)cc(Cl)c1 [PR 23, 3,5-dichloro-N-(3,4-dihydroquinazolin-2-yl)benzene-1-sulfonamide] |  | 95.2 | 94.6 | 97.7 |  |  | 208 to 211 | 42.6 | 0.609 ± 0.152 |  | 
20 | O=S(=O)(NC1=Nc2cccc(Cl)c2CN1)c1cccc2ccccc12 [PR 46, N -(5-chloro-3,4-dihydroquinazolin-2-yl)naphthalene-1-sulfonamide] | > 25 |  |  |  |  |  |  |  | 0.16 ± 0.036 | > 25 | 
21 | CC1NC(NS(=O)(=O)c2cccc3ccccc23)=Nc2c(Cl)cc(Cl)cc21 (stereo not shown) [PR 72, N -(6,8-dichloro-4-methyl-3,4-dihydroquinazolin-2-yl)naphthalene-1-sulfonamide] |  | 114.1 | 111.3 | 116.7 |  |  | 109 to 116 | 49.3 | 0.997 ± 0.249 |  | 
